Test results reported in PubChem BioAssay (NCI).
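The compound was tested at five concentrations on cells cultured in 96-well plates, with a 48-hour exposure period. The concentration for 50% growth inhibition is given as GI50. TGI: concentration producing complete growth inhibition.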

Columns and labels:
Assay in all cases: inhibition of tumour cell growth, NCI panel, 48 h
[1] = test system: 786-0 renal
[2] = test system: A498 renal
[3] = test system: A549 NSCLC
[4] = test system: ACHN renal
[5] = test system: BT-549 breast
[6] = test system: CAKI-1 renal
[7] = test system: CCRF-CEM leukemia
[8] = test system: COLO 205 colon
[9] = test system: DU-145 prostate
[10] = test system: EKVX NSCLC
[11] = test system: HCC-2998 colon
[12] = test system: HCT-116 colon
[13] = test system: HCT-15 colon
[14] = test system: HL-60(TB) leukemia
[15] = test system: HOP-62 NSCLC
[16] = test system: HOP-92 NSCLC
[17] = test system: HS 578T breast
[18] = test system: HT29 colon
[19] = test system: IGROV1 ovarian
[20] = test system: K-562 leukemia
[21] = test system: KM12 colon
[22] = test system: LOX IMVI melanoma
[23] = test system: M14 melanoma
[24] = test system: MALME-3M melanoma
[25] = test system: MCF7 breast
[26] = test system: MDA-MB-231 breast
[27] = test system: MDA-MB-435
[28] = test system: MOLT-4 leukemia
[29] = test system: NCI-H226 lung
[30] = test system: NCI-H23 lung
[31] = test system: NCI-H460 lung
[32] = test system: NCI-H522 lung
[33] = test system: NCI/ADR-RES ovarian
[34] = test system: OVCAR-3 ovarian
[35] = test system: OVCAR-4 ovarian
[36] = test system: OVCAR-5 ovarian
[37] = test system: OVCAR-8 ovarian
[38] = test system: PC-3 prostate
[39] = test system: RPMI-8226 leukemia
[40] = test system: RXF 393 renal
[41] = test system: SF-268 CNS
[42] = test system: SF-295 CNS
[43] = test system: SF-539 CNS
[44] = test system: SK-MEL-2 melanoma
[45] = test system: SK-MEL-28 melanoma
[46] = test system: SK-MEL-5 melanoma
[47] = test system: SK-OV-3 ovarian
[48] = test system: SN12C renal
[49] = test system: SNB-19 CNS
[50] = test system: SNB-75 CNS
[51] = test system: SR leukemia
[52] = test system: SW-620 colon
[53] = test system: T-47D breast
[54] = test system: TK-10 renal
[55] = test system: U251 CNS
[56] = test system: UACC-257 melanoma
[57] = test system: UACC-62 melanoma
[58] = test system: UO-31 renal

COc1ccc2c(C3=C(c4cn(C)c5ccccc45)C(=O)NC3=O)coc2c1
GI50 [1]: 0.524 µM
TGI [1]: 16.5 µM
GI50 [2]: 7.45 µM
TGI [2]: 25.5 µM
GI50 [3]: 1 µM
TGI [3]: > 100 µM
GI50 [4]: 0.798 µM
TGI [4]: 15.5 µM
GI50 [5]: 0.847 µM
TGI [5]: 18.2 µM
GI50 [6]: 0.16 µM
TGI [6]: 17.3 µM
GI50 [7]: 0.286 µM
TGI [7]: 13.7 µM
GI50 [8]: 0.289 µM
TGI [8]: 1.31 µM
GI50 [9]: 0.541 µM
TGI [9]: 19.5 µM
GI50 [10]: 0.593 µM
TGI [10]: > 88.4 µM
GI50 [11]: 0.65 µM
TGI [11]: 10.9 µM
GI50 [12]: 0.267 µM
TGI [12]: 12.1 µM
GI50 [13]: 0.172 µM
TGI [13]: 24.4 µM
GI50 [14]: 0.155 µM
TGI [14]: 0.865 µM
GI50 [15]: 0.416 µM
TGI [15]: 20.1 µM
GI50 [16]: 21.3 µM
TGI [16]: 44.5 µM
GI50 [17]: 0.234 µM
TGI [17]: 3.8 µM
GI50 [18]: 0.3 µM
TGI [18]: 4.83 µM
GI50 [19]: 0.7 µM
TGI [19]: 24.4 µM
GI50 [20]: 0.0997 µM
TGI [20]: > 100 µM
GI50 [21]: 0.347 µM
TGI [21]: 13.1 µM
GI50 [22]: 0.558 µM
TGI [22]: 16.6 µM
GI50 [23]: 0.288 µM
TGI [23]: 18.6 µM
GI50 [24]: 12.2 µM
TGI [24]: 33 µM
GI50 [25]: 0.208 µM
TGI [25]: 26 µM
GI50 [26]: 0.632 µM
TGI [26]: 8.11 µM
GI50 [27]: 0.132 µM
TGI [27]: 0.477 µM
GI50 [28]: 0.424 µM
TGI [28]: 33.2 µM
GI50 [29]: 1.52 µM
TGI [29]: 17.7 µM
GI50 [30]: 0.804 µM
TGI [30]: 23.6 µM
GI50 [31]: 0.353 µM
TGI [31]: 11.6 µM
GI50 [32]: 0.188 µM
TGI [32]: 0.754 µM
GI50 [33]: 0.207 µM
TGI [33]: 15 µM
GI50 [34]: 0.193 µM
TGI [34]: 0.787 µM
GI50 [35]: 6.91 µM
TGI [35]: 65.9 µM
GI50 [36]: 0.901 µM
TGI [36]: 30.7 µM
GI50 [37]: 0.462 µM
TGI [37]: 16.5 µM
GI50 [38]: 0.471 µM
TGI [38]: > 100 µM
GI50 [39]: 0.415 µM
TGI [39]: 12.6 µM
GI50 [40]: 0.215 µM
TGI [40]: 1.24 µM
GI50 [41]: 1.19 µM
TGI [41]: 27.9 µM
GI50 [42]: 0.469 µM
TGI [42]: 15.1 µM
GI50 [43]: 0.272 µM
TGI [43]: 1.66 µM
GI50 [44]: 0.191 µM
TGI [44]: 0.931 µM
GI50 [45]: 4.95 µM
TGI [45]: 35 µM
GI50 [46]: 0.422 µM
TGI [46]: 7.3 µM
GI50 [47]: 0.368 µM
TGI [47]: 47.2 µM
GI50 [48]: 0.715 µM
TGI [48]: 15.3 µM
GI50 [49]: 0.712 µM
TGI [49]: 70.4 µM
GI50 [50]: 0.148 µM
TGI [50]: 0.71 µM
GI50 [51]: 0.0849 µM
TGI [51]: 8.68 µM
GI50 [52]: 0.176 µM
TGI [52]: > 57.9 µM
GI50 [53]: 0.43 µM
TGI [53]: 45.5 µM
GI50 [54]: 13.6 µM
TGI [54]: 59.7 µM
GI50 [55]: 0.411 µM
TGI [55]: 13 µM
GI50 [56]: 1.44 µM
TGI [56]: 27.6 µM
GI50 [57]: 0.186 µM
TGI [57]: 16.6 µM
GI50 [58]: 0.468 µM
TGI [58]: 23.5 µM
